Earlier results on six molecules are cited in patent US20110034478A1, “Oral Pharmaceutical Compositions in a Solid Dispersion Comprising Preferably Posaconazole and HPMCAs” (Schering-Plough Corporation, priority 2008, published 2011).

Regarding `CC(C)N1CCN(c2ccc(OC[C@H]3CO[C@](Cn4cncn4)(c4ccc(Cl)cc4Cl)O3)cc2)CC1` (racemic) [Terconazole], the solubility in water was < 100 µg/mL.

In the case of `CC(C(=O)Nc1cc(-c2ccccc2)nn1-c1ccccc1)N(C)C` (stereo not shown) [Difenamizole], the “solubility in water” value is recorded as “practically insoluble”. Turning to `N#Cc1ccc(C(c2ccc(C#N)cc2)n2cncn2)cc1` [Letrozole], the “solubility in water” value is reported as “practically insoluble”. In the case of `OC(Cn1cncn1)(Cn1cncn1)c1ccc(F)cc1F` [Fluconazole], the solubility in water entry is on record as “about 1 ug/ml”. With `CCC(C)n1ncn(-c2ccc(N3CCN(c4ccc(OC[C@H]5CO[C@](Cn6cncn6)(c6ccc(Cl)cc6Cl)O5)cc4)CC3)cc2)c1=O` (mixture of isomers) [Itraconazole], the “solubility in water” value is on record as “practically insoluble”. In the case of `CCC(C)n1ncn(-c2ccc(N3CCN(c4ccc(OCC5CO[C@](Cn6cncn6)(c6ccc(F)cc6F)O5)cc4)CC3)cc2)c1=O` (stereo partly shown) [Saperconazole], the “solubility in water” value was “poorly soluble”.

The source holds these as a separate data set.
As a reminder, the pKa is the pH at which an ionisable group is half protonated. As for `CCC(C)n1ncn(-c2ccc(N3CCN(c4ccc(OC[C@H]5CO[C@](Cn6cncn6)(c6ccc(Cl)cc6Cl)O5)cc4)CC3)cc2)c1=O` (mixture of isomers) [Itraconazole], the pKa is reported as 3.7.
